{
  "source": "patent US9693992B2",
  "about": "(MannKind Corporation, priority 2010, dated 2017)",
  "tested_on": "XBP-1 splicing",
  "test": "XBP-1 splicing inhibition in livers and kidneys of CB17 SCID mice after tunicamycin",
  "assay_type": "in vivo",
  "settings": "1 mg/kg IP, alone, relative to PBS treated mice",
  "description": "The preclinical validation strategy employs a set of animal models representing normal tissues under chemical stress and multiple myeloma xenographs. The normal animal model is employed as a surrogate model where dose-related on-target activity of compounds can be confirmed in tissues sensitive to standard UPR inducing agents such as tunicamycin (Wu et al., Dev Cell. 2007 September; 13(1d):351-64). […] Upon induction with tunicamycin, tissues induce active XBP-1 mRNA splicing, and this activity is suppressed by IRE-1α inhibitors. This on-target ER stress animal model is a useful screening and early pharmacokinetic tool.\nCB17 SCID mice were treated with 1 mg/kg tunicamycin by intraperitoneal (IP) injection at time 0 (T=0). Two hours later, compound A formulated in 10% hydroxy beta propyl cyclo dextran HBPCD was administered by IP injection. Doses were 50 mg/kg, 25 mg/kg and 10 mg/kg (4 mice in each group). Mice were sacrificed two hours later (4 hours from T=0), and the designated organs were harvested (FIG. 3A).\nRT-PCR analysis was performed using murine-specific XBP-1 primers from total RNA harvested from specified organs. […] Each lane represents an individual mouse where RNA was harvested and RT-PCR was performed. Method of RNA extraction and RT-PCR analysis is described in Volkmann et al., J. Biol. Chem. 286, 12743-55, 2011. […]",
  "data": [
    {"substance": "tunicamycin", "values": [
      {"measurement": "induction of XBP-1s", "result": "induces XBP-1 spliced"}
    ]}
  ]
}
